In patent US8080558B2, “4-(tetrazol-5-yl)-quinazoline derivatives as anti-cancer agent” (Natco Pharma Limited, priority 2007, dated 2011):

Tested on: A549 cells
Assay: Matrigel invasion assay (modified Boyden chamber), A549 cells
Assay type: cell-based
Details: 100 to 800 ng/ml
Experimental: The in vitro invasiveness of H1299 or A549 cells in the presence of various concentrations of NRC compounds (as determined by MTT assay) was assessed using a modified Boyden chamber assay. Cells were treated with these compounds for 48 h. 1×10^6 cells were suspended in 600 μl of serum-free medium supplemented with 0.2% BSA and placed in the upper compartment of the transwell chambers (Corning Costar Fischer Scientific Cat #07-200-158, Pittsburgh Pa.) coated with Matrigel (0.7 mg/ml). The lower compartment of the chamber was filled with 200 μl of serum-medium and the cells were allowed to migrate for 24 h. After incubation, the cells were fixed and stained with Hema-3 and quantified as previously described (Mohanam, et al. 1993). The migrated cells were quantified as percent invasion.
Matrigel invasion was performed as described in materials and methods. […] Using H1299 cells similar retardation patterns of invasion was observed.

For `C#Cc1cccc(Nc2ncnc3cc(OCCOC)c(OCCOC)cc23)c1` [Erlotinib], the invasiveness was “decreased invasiveness in a dose dependent manner”.
